Measurements published in patent publication US20110301142A1, “ANTAGONISTS OF LYSOPHOSPHATIDIC ACID RECEPTORS” (priority 2008, published 2011).

Columns and labels:
[1] = molecular target: T1, human LPA1 (Homo sapiens, UniProt Q92633); experiment: LPA1 calcium flux assay (HLPA1 Ca Flux); type: cell-based; details: Human LPA1 expressing CHO cells, stimulated with 10 nM LPA
T1 construct: the full-length cDNA for human LPA1 was obtained by PCR of the reverse transcription reaction; expressed in transfected cells
Protocol: A 1.1 kb cDNA encoding the human LPA1 receptor was cloned from human lung. Human lung RNA (Clontech Laboratories, Inc. USA) was reverse transcribed using the RETROscript kit (Ambion, Inc.) and the full-length cDNA for human LPA1 was obtained by PCR of the reverse transcription reaction. The nucleotide sequence of the cloned human LPA1 was determined by sequencing and confirmed to be identical to the published human LPA1 sequence (An et al. Biochem. Biophys. Res. Commun. 231:619 (1997). The cDNA was cloned into the pcDNAS/FRT expression plasmid and transfected in CHO cells using lipofectamine 2000 (Invitrogen Corp., USA). Clones stably expressing human LPA1 were selected using hygromycin and identified as cells that show Ca-influx in response to LPA.
(§1) Human LPA1 or LPA3 expressing CHO cells are seeded at 20,000-45,000 cells per well in a 96-well poly-D-lysine coated plate one or two days before the assay. Prior to the assay, the cells are washed once with PBS and then cultured in serum-free media overnight. On the day of the assay, a calcium indicator dye (Calcium 4, Molecular Devices) in assay buffer (HBSS with Ca^2+ and Mg^2+ and containing 20 mM Hepes and 0.3% fatty-acid free human serum albumin) is added to each well and incubation continued for 1 hour at 37° C. 10 μl of test compounds in 2.5% DMSO are added to the cells and incubation continued at room temperature for 30 minutes. Cells are the stimulated by the addition of 10 nM LPA and intracellular Ca^2+ measured using the Flexstation 3 (Molecular Devices). IC50s are determined using Graphpad prism analysis of drug titration curves.

[2] = molecular target: T2, human LPA3 (Homo sapiens, UniProt Q9UBY5); experiment: LPA3 calcium flux assay; type: cell-based; details: Human LPA3 expressing CHO cells, stimulated with 10 nM LPA; read-out: HLPA3 Ca Flux IC50
T2 construct: The full-length cDNA fragment for human LPA3 was obtained by PCR from the vector; expressed in transfected cells; cDNA from the Missouri S&T cDNA Resource Center
T2 sequence (Q9UBY5 1-353): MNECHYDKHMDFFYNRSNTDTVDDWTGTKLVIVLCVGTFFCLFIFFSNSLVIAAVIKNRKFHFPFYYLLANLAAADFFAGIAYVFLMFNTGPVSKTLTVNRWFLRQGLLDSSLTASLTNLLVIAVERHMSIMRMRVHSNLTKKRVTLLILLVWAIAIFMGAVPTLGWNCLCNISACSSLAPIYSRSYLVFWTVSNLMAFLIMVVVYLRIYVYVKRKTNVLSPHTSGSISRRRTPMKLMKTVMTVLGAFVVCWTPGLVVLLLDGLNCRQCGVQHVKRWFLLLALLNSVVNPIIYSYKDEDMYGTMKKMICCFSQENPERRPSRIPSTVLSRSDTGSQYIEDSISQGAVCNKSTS
Protocol: A vector containing the human LPA3 receptor cDNA was obtained from the Missouri S&T cDNA Resource Center (www.cdna.org). The full-length cDNA fragment for human LPA3 was obtained by PCR from the vector. The nucleotide sequence of the cloned human LPA3 was determined by sequencing and confirmed to be identical to the published human LPA3 sequence (NCBI accession number NM 012152). The cDNA was cloned into the pcDNA5/FRT expression plasmid and transfected in CHO cells using lipofectamine 2000 (Invitrogen Corp., USA). Clones stably expressing human LPA3 were selected using hygromycin and identified as cells that show Ca-influx in response to LPA.
as §1

T1 sequence (Q92633 whole entry): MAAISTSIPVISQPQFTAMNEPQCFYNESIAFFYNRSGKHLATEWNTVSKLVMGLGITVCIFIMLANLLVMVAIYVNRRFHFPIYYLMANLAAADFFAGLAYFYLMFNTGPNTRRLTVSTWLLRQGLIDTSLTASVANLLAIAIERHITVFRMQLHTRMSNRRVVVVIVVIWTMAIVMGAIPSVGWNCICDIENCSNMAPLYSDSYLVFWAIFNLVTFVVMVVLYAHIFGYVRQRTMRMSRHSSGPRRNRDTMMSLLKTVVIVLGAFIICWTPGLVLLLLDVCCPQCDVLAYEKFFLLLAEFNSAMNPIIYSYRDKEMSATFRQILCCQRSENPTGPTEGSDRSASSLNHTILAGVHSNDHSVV

Compound | IC50 [1] | IC50 [2]
Cc1noc(-c2ccc(-c3ccc(C(C)C(=O)O)cc3)cc2)c1NC(=O)O[C@H](C)c1ccccc1Cl (single isomer, unassigned) [Compound 1-127] | < 0.3 µM | 0.3 to 1 µM
Cc1noc(-c2ccc(-c3ccc(C(C)C(=O)O)cc3)cc2)c1NC(=O)O[C@H](C)c1ccccc1Cl (single isomer, unassigned) [Compound 1-128] | < 0.3 µM | 1 to 50 µM
Cc1noc(-c2ccc(Cn3cnc(C(=O)O)n3)cc2)c1NC(=O)OC(C)c1ccccc1Cl (centres unmarked) [Compound 1-1, 1-(4-{4-[1-(2-Chloro-phenyl)-ethoxycarbonylamino]-3-methyl-isoxazol-5-yl}-benzyl)-1H-[1,2,4]triazole-3-carboxylic acid] | < 0.3 µM | 1 to 50 µM
Cc1noc(-c2ccc(Cn3cncc3C(=O)O)cc2)c1NC(=O)OC(C)c1ccccc1Cl (centres unmarked) [Compound 1-3, 3-(4-{4-[1-(2-Chloro-phenyl)-ethoxycarbonylamino]-3-methyl-isoxazol-5-yl}-benzyl)-3H-1-imidazole-4-carboxylic acid] | < 0.3 µM | 1 to 50 µM
Cc1noc(-c2ccc(Cn3ncc(C(=O)O)c3C(F)(F)F)cc2)c1NC(=O)OC(C)c1ccccc1Cl (centres unmarked) [Compound 1-4, 1-(4-{4-[1-(2-Chloro-phenyl)-ethoxycarbonylamino]-3-methyl-isoxazol-5-yl}-benzyl)-5-trifluoromethyl-1H-pyrazole-4-carboxylic acid] | < 0.3 µM | 1 to 50 µM
CCOC(=O)Cc1ccc(Sc2ccc(-c3onc(C)c3NC(=O)O[C@H](C)c3ccccc3F)cc2)cc1 [Compound 1-105, [4-(4-{4-[(R)-1-(2-Fluoro-phenyl)-ethoxycarbonylamino]-3-methyl-isoxazol-5-yl}-phenylsulfanyl)-phenyl]-acetic acid ethyl ester] | 1 to 50 µM | 
Cc1noc(-c2ccc(Sc3cccc(CC(=O)O)c3)cc2)c1NC(=O)O[C@H](C)c1ccccc1F [Compound 1-106, [3-(4-{4-[(R)-1-(2-Fluoro-phenyl)-ethoxycarbonylamino]-3-methyl-isoxazol-5-yl}-phenylsulfanyl)-phenyl]-acetic acid] | 0.3 to 1 µM | 
Cc1noc(-c2ccc(Sc3ccccc3CC(=O)O)cc2)c1NC(=O)O[C@H](C)c1ccccc1F [Compound 1-107, [2-(4-{4-[(R)-1-(2-Fluoro-phenyl)-ethoxycarbonylamino]-3-methyl-isoxazol-5-yl}-phenylsulfanyl)-phenyl]-acetic acid] | 1 to 50 µM | 
Cc1noc(-c2ccc(Sc3ccc(CC(=O)O)cn3)cc2)c1NC(=O)O[C@H](C)c1ccccc1F [Compound 1-108, [6-(4-{4-[(R)-1-(2-Fluoro-phenyl)-ethoxycarbonylamino]-3-methyl-isoxazol-5-yl}-phenylsulfanyl)-pyridin-3-yl]-acetic acid] | < 0.3 µM | 
Cc1cc(-c2onc(C)c2NC(=O)O[C@H](C)c2ccccc2F)ccc1-c1ccc(C(C)C(=O)O)cc1 (stereo partly drawn) [Compound 1-110, 2-(4′-{4-[(R)-1-(2-Fluoro-phenyl)-ethoxycarbonylamino]-3-methyl-isoxazol-5-yl}-2′-methyl-biphenyl-4-yl)-propionic acid] | < 0.3 µM | 
Cc1noc(-c2ccc(-c3ccc(CC(=O)O)cc3)cc2)c1NC(=O)OCc1ccccc1Cl [Compound 1-113, {4′-[4-(2-Chloro-benzyloxycarbonylamino)-3-methyl-isoxazol-5-yl]-biphenyl-4-yl}-acetic acid] | 0.3 to 1 µM | 
COc1ccc(C(C)OC(=O)Nc2c(C)noc2-c2ccc(-c3ccc(CC(=O)O)cc3)cc2)c(F)c1 (centres unmarked) [Compound 1-118, (4′-{4-[1-(2-Fluoro-4-methoxy-phenyl)-ethoxycarbonylamino]-3-methyl-isoxazol-5-yl}-biphenyl-4-yl)-acetic acid] | 0.3 to 1 µM | 
Cc1noc(-c2ccc(-c3ccccc3CC(=O)O)cc2)c1NC(=O)O[C@H](C)c1ccccc1 [Compound 1-123] | 1 to 50 µM | 
Cc1noc(-c2ccc(-c3ccc(C(=O)O)cc3)cc2)c1NC(=O)OC(C)C [Compound 1-125, 4′-(4-Isopropoxycarbonylamino-3-methyl-isoxazol-5-yl)-biphenyl-4-carboxylic acid] | 1 to 50 µM | 
COC(=O)Cn1nnc(-c2ccc(-c3onc(C)c3NC(=O)O[C@H](C)c3ccccc3F)cc2)n1 [Compound 1-134, [5-(4-{4-[(R)-1-(2-Fluoro-phenyl)-ethoxycarbonylamino]-3-methyl-isoxazol-5-yl}-phenyl)-tetrazol-2-yl]-acetic acid methyl ester] | 1 to 50 µM | 
Cc1noc(-c2ccc(-c3nnn(CC(=O)O)n3)cc2)c1NC(=O)O[C@H](C)c1ccccc1F [Compound 1-135, [5-(4-{4-[(R)-1-(2-Fluoro-phenyl)-ethoxycarbonylamino]-3-methyl-isoxazol-5-yl}-phenyl)-tetrazol-2-yl]-acetic acid] | 1 to 50 µM | 
Cc1noc(-c2ccc(-c3ccc(CC(=O)O)cc3)cc2)c1NC(=O)OC(C)(C)C [Compound 1-136, [4′-(4-tert-Butoxycarbonylamino-3-methyl-isoxazol-5-yl)-biphenyl-4-yl]-acetic acid] | 0.3 to 1 µM | 
Cc1noc(-c2ccc(CN3CC(C(=O)O)C3)cc2)c1NC(=O)O[C@H](C)c1ccccc1 [Compound 1-140] | 1 to 50 µM | 
Cc1noc(-c2ccc(-c3ccc(CC(=O)O)cc3)cc2)c1NC(=O)O[C@H](C)c1cc(Br)cc(Br)c1 [Compound 1-141, (4′-{4-[(R)-1-(3,5-Dibromo-phenyl)-ethoxycarbonylamino]-3-methyl-isoxazol-5-yl}-biphenyl-4-yl)-acetic acid] | 1 to 50 µM | 

Now from value to molecule:

IC50 [1] | IC50 [2] | Compound
< 0.3 µM |  | Cc1noc(-c2ccc(Cc3ccc(C(=O)NC4CC4)cc3)cc2)c1NC(=O)OC(C)c1ccccc1Cl (centres unmarked) [Compound 2-1, {5-[4-(4-Cyclopropylcarbamoyl-benzyl)-phenyl]-3-methyl-isoxazol-4-yl}-carbamic acid 1-(2-chloro-phenyl)-ethyl ester]
1 to 50 µM |  | Cc1noc(-c2ccc(-c3ccc(CC(=N)N)cc3)cc2)c1NC(=O)O[C@H](C)c1ccccc1F [Compound 2-6, [5-(4′-Carbamimidoylmethyl-biphenyl-4-yl)-3-methyl-isoxazol-4-yl]-carbamic acid (R)-1-(2-fluoro-phenyl)-ethyl ester]
< 0.3 µM |  | CC(=O)NC(=N)Cc1ccc(-c2ccc(-c3onc(C)c3NC(=O)O[C@H](C)c3ccccc3F)cc2)cc1 [Compound 2-7, {5-[4′-(2-Acetylamino-2-imino-ethyl)-biphenyl-4-yl]-3-methyl-isoxazol-4-yl}-carbamic acid (R)-1-(2-fluoro-phenyl)-ethyl ester]
0.3 to 1 µM |  | Cc1noc(-c2ccc3cc(-c4ccc(CC(=O)O)cc4)ccc3c2)c1NC(=O)OC(C)c1ccccc1Cl (centres unmarked) [Compound 3-1]
0.3 to 1 µM |  | Cc1noc(-c2ccc3cc(-c4ccc(CSCCC(=O)O)cc4)ccc3c2)c1NC(=O)OC(C)c1ccccc1Cl (centres unmarked) [Compound 3-2, 3-[4-(6-{4-[1-(2-Chloro-phenyl)-ethoxycarbonylamino]-3-methyl-isoxazol-5-yl}-naphthalen-2-yl)-benzylsulfanyl]-propionic acid]
1 to 50 µM |  | Cc1noc(-c2csc(-c3ccc(CC(=O)O)cc3)n2)c1NC(=O)O[C@H](C)c1ccccc1F [Compound 3-3, [4-(4-{4-[(R)-1-(2-Fluoro-phenyl)-ethoxycarbonylamino]-3-methyl-isoxazol-5-yl}-thiazol-2-yl)-phenyl]-acetic acid]
1 to 50 µM |  | Cc1noc(-c2csc(-c3ccccc3CC(=O)O)n2)c1NC(=O)O[C@H](C)c1ccccc1F [Compound 3-5, [2-(4-{4-[(R)-1-(2-Fluoro-phenyl)-ethoxycarbonylamino]-3-methyl-isoxazol-5-yl}-thiazol-2-yl)-phenyl]acetic acid]
0.3 to 1 µM |  | Cc1noc(-c2csc(-c3cccc(CC(=O)O)c3)n2)c1NC(=O)O[C@H](C)c1ccccc1F [Compound 3-6, [3-(4-{4-[(R)-1-(2-Fluoro-phenyl)-ethoxycarbonylamino]-3-methyl-isoxazol-5-yl}-thiazol-2-yl)-phenyl]acetic acid]
